In US20060270664A1, “Fluorescent fused-ring triazoles that inhibit cell proliferation and uses thereof” (priority 2004, published 2006) one finds IC50, Emission peak and Excitation peaks data, which are given here for three molecules.

Data set [1] deals with human HeLa cervical carcinoma. Description: Growth inhibition of tumor cells in culture, Coulter Counter cell count after 5 days. The settings on record: 120 h, read-out: IC50 of fused ring triazole (concentration inhibiting growth of cell line by 50%). The class given is cell-based. The method, then:
(§1) Experiments were performed in accordance with the procedure described by Yurkow and Laskin (Cancer Chemother. Pharmacol. 1991 27:315-319). In these experiments, tumor cells were maintained in culture in growth medium consisting of Dulbecco's modified Eagle's medium (DMEM) supplemented with 10% fetal bovine. Tumor cells were plated at low density (5000 cells/well) in 6-well tissue culture dishes and allowed to adhere overnight. The medium was then replaced with phenol red-free DMEM supplemented with increasing concentrations of the compounds, with zero concentration of compound serving as the control. Six concentrations and a control were used for each inhibitor, and each concentration was tested in triplicate. After 5 days, cells were removed from the dishes and enumerated using a Coulter Counter (Coulter Electronics, Inc.). The controls and treated samples at each concentration were averaged. Data are presented as the percentage of control growth at each concentration of the compound, plus and minus the standard error. The IC50 for growth inhibition was the concentration of each compound that inhibited growth by 50%. These are depicted in Table 1.

Another data set deals with human CX-1 colon cells. The data set is described as above. The class given is cell-based. The following applies: 120 h, read-out: IC50 of fused ring triazole (concentration inhibiting growth of cell line by 50%). The procedure:
as §1

Another data set has as its system mouse B16 melanoma. The data set is described as above. The settings on record: 120 h, read-out: IC50 of fused ring triazole (concentration inhibiting growth of cell line by 50%). The class given is cell-based. The method, then: as §1
For data set [2], the system named is mouse PAM 212 keratinocytes. Described as above. The class given is cell-based. The settings on record: PAM212, 120 h, read-out: IC50 of fused ring triazole (concentration inhibiting growth of cell line by 50%). The method, then:
as §1

Data set [3] can be described thus: Fluorescence excitation and emission spectra (Perkin-Elmer LS-5B Luminescence Spectrometer). The class given is physicochemical. The settings on record: 10 micromolar solution. The method, then:
Excitation and emission spectra of a 10 micromolar solution of compounds IIa and IIb were determined using a Perkin-Elmer LS-5B Luminescence Spectrometer.

Regarding `C1=Nn2c(nnc2-c2ccccn2)S/C1=C\c1ccccc1` [Compound IIb, 3-(2-pyridyl)-7-(phenylmethylene)-s-triazolo[3,4-b] [1,3,4]-thiadiazine], the IC50 in data set [1] is 9 µM; in the data set on human CX-1 colon cells, 30 µM; in the data set on mouse B16 melanoma, 15 µM; in data set [2], 18 µM. In data set [3], this molecule gave an Emission peak of 320 nm. In data set [3], this molecule came in with an Excitation peaks of 249 nm.

On to `C1=Nn2c(nnc2-c2ccncc2)S/C1=C\c1ccccc1` [Compound IIa, 3-(4-pyridyl)-7-(phenylmethylene)-s-triazolo[3,4-b] [1,3,4]-thiadiazine], for which the IC50 in data set [1] turned out to be 4 µM; in the data set on human CX-1 colon cells, 17 µM; in the data set with mouse B16 melanoma it was 9 µM; in data set [2] it was 10 µM. In data set [3], the Emission peak is given as 358 nm.

For `C1=Nn2c(nnc2-c2cccs2)S/C1=C\c1ccccc1` [Compound IId, 3-(2-thienyl)-7-(phenylmethylene)-s-triazolo[3,4-b] [1,3,4]-thiadiazine], the IC50 was determined as 28 µM in data set [1], 20 µM in the data set on human CX-1 colon cells, 23 µM in the data set on mouse B16 melanoma and 18 µM in data set [2].
